Measured values from ChEMBL document CHEMBL2203002, “Fluorescent nitrile-based inhibitors of cysteine cathepsins” (Bioorg Med Chem Lett, 2012).

Tests used:
[1] = Inhibition of human cathepsin L using Z-Phe-Arg-pNA as substrate incubated for 30 mins prior to substrate addition measured after 10 mins by […] analysis
Cathepsin K [2] = target: T1, Cathepsin K (Homo sapiens, UniProt P43235); assay: Inhibition of human recombinant cathepsin K using Z-Leu-Arg-AMC as substrate after 80 mins by fluorimetric analysis
T1 sequence (P43235 whole entry): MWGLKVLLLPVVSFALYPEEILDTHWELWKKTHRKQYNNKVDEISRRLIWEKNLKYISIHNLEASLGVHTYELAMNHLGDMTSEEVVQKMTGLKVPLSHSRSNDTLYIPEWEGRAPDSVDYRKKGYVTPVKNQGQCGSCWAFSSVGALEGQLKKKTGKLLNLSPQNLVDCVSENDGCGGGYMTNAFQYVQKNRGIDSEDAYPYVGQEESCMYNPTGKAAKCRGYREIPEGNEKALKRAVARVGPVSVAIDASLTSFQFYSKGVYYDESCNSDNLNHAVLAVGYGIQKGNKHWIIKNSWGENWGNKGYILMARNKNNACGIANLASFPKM

Cathepsin B [3] = target: T2, Cathepsin B (Homo sapiens, UniProt P07858); assay: Inhibition of human recombinant cathepsin B using Z-Arg-Arg-pNA as substrate after 80 mins by […] analysis
[4] = target: T3, Cathepsin K (Homo sapiens) (UniProt P43235)
T3 sequence (whole entry): T1 sequence (P43235 whole entry)
Description: Binding affinity to human recombinant cathepsin K assessed as compound-enzyme half life

Cathepsin B [5] = target: T2, Cathepsin B
Description: Binding affinity to human recombinant cathepsin B assessed as compound-enzyme half life

Cathepsin S [6] = target: T4, Cathepsin S (Homo sapiens, UniProt P25774)
Target sequence in this assay (P25774 115-331 limits assumed): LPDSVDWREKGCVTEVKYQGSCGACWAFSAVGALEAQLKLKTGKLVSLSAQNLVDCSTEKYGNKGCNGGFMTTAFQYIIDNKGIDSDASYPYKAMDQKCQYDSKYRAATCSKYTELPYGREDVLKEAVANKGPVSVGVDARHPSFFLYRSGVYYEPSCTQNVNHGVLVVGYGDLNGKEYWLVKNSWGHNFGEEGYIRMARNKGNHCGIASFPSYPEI
Description: Binding affinity to human recombinant cathepsin S assessed as compound-enzyme half life

Cathepsin S [7] = target: T4, Cathepsin S; assay: Inhibition of human recombinant cathepsin S using Z-Phe-Arg-pNA as substrate after 80 mins by […] analysis
Target sequence in this assay (P25774 whole entry): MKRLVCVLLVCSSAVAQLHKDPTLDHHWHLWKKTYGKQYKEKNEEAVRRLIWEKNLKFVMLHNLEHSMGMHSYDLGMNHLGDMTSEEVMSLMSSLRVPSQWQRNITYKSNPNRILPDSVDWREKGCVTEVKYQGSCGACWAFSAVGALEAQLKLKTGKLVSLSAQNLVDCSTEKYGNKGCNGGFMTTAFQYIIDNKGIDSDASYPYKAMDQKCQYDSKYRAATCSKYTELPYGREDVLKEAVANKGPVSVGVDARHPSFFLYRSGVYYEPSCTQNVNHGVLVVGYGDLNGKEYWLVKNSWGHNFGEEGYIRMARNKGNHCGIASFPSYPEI

Cathepsin S [8] = target: T4, Cathepsin S; assay: Inhibition of human recombinant cathepsin S using Z-Phe-Arg-pNA as substrate after 10 mins by […] analysis
Target sequence in this assay (P25774 whole entry): as above

Cathepsin B [9] = target: T2, Cathepsin B; assay: Inhibition of human recombinant cathepsin B using Z-Arg-Arg-pNA as substrate after 10 mins by […] analysis
[10] = Inhibition of human cathepsin L using Z-Phe-Arg-pNA as substrate after 10 mins by […] analysis
Cathepsin K [11] = target: T1, Cathepsin K; assay: Inhibition of human recombinant cathepsin K using Z-Leu-Arg-AMC as substrate after 10 mins by fluorimetric analysis

SMILES	Ki [1]	Ki (Cathepsin K [2])	Ki (Cathepsin B [3])	T1/2 [4]	T1/2 (Cathepsin B [5])	T1/2 (Cathepsin S [6])	Ki (Cathepsin S [7])	Ki (Cathepsin S [8])	Ki (Cathepsin B [9])	Ki [10]	Ki (Cathepsin K [11])
CCN(CC)c1ccc2cc(C(=O)NC3(C(=O)N(C)N(C)C#N)CCCCC3)c(=O)oc2c1	760 nM	19 nM	140 nM	30 min	30 min	30 min	750 nM				
CN(C)c1cccc2c(S(=O)(=O)NC3(C(=O)NCC#N)CCCCC3)cccc12								6600 nM	> 40000 nM	> 40000 nM	880 nM
CCN(CC)c1ccc2cc(C(=O)NC3(C(=O)NCC#N)CCCCC3)c(=O)oc2c1								8400 nM	> 40000 nM	18000 nM	230 nM
